Experiments:
Assay in all cases: Test G preemergence/postemergence greenhouse plant response rating 0 to 100
alfalfa = format: in vivo, Medicago ativa; details: 0 to 100 scale
Excerpt: (§1) Seeds, rhizomes, or plant parts of alfalfa (Medicago ativa), annual bluegrass (Poa annua), bermudagrass (Cynodon dactylon), broadleaf signalgrass (Brachiaria plantaginea), common purslane (Portulaca oleracea), common ragweed (Ambrosia elatior), […] (Paspalum dilatatum), goosegrass (Eleusine indica), guineagrass (Panicum maximum), […] exaltata), johnsongrass (Sorghum halepense), large crabgrass (Digitaria sanguinalis), peanut (Arachis hypoagaea), pitted morningglory (Ipomoea lacunosa), purple nutsedge (Cyperus rotundus), sandbur (Cenchrus echinatus), smooth crabgrass (Digitaria ischaemum) and yellow nutsedge (Cyperus esculentus) were planted into greenhouse pots containing greenhouse planting medium. Each pot contained only one plant species. The test compound was dissolved in a non-phytotoxic solvent and applied preemergence and/or postemergence to the plants. Preemergence applications were made within one day of planting the seeds or plant parts. Postemergence applications were applied when the plants were in the two to four leaf stage (three to twenty cm). Test chemicals were dissolved in a non-phytotoxic solvent and applied preemergence and postemergence to the plants. Untreated control plants and treated plants were placed in the greenhouse and visually evaluated for injury at 13 to 21 days after herbicide application. […] A dash (-) response indicates no test result.

peanut = format: in vivo, Arachis hypoagaea; details: 0 to 100 scale
Excerpt: as §1

purple nutsedge = format: in vivo, Cyperus rotundus; details: Rate 125 g/ha, 0 to 100 scale
Excerpt: as §1

broadleaf signalgrass = format: in vivo, Brachiaria plantaginea; details: 0 to 100 scale
Excerpt: as §1

common purslane = format: in vivo, Portulaca oleracea; details: 0 to 100 scale
Excerpt: as §1

goosegrass = format: in vivo, Eleusine indica; details: 0 to 100 scale
Excerpt: as §1

common ragweed = format: in vivo, Ambrosia elatior; details: 0 to 100 scale
Excerpt: as §1

yellow nutsedge = format: in vivo, Cyperus esculentus; details: Rate 125 g/ha, 0 to 100 scale
Excerpt: as §1

smooth crabgrass = format: in vivo, Digitaria ischaemum; details: 0 to 100 scale
Excerpt: as §1

large crabgrass = format: in vivo, Digitaria sanguinalis; details: 0 to 100 scale
Excerpt: as §1

pitted morningglory = format: in vivo, Ipomoea lacunosa; details: 0 to 100 scale
Excerpt: as §1

dallisgrass = format: in vivo, Paspalum dilatatum; details: 0 to 100 scale
Excerpt: as §1

annual bluegrass = format: in vivo, Poa annua; details: 0 to 100 scale
Excerpt: as §1

itchgrass = format: in vivo, Rottboellia exaltata; details: 0 to 100 scale
Excerpt: as §1

johnsongrass = format: in vivo, Sorghum halepense; details: 0 to 100 scale
Excerpt: as §1

guineagrass = format: in vivo, Panicum maximum; details: 0 to 100 scale
Excerpt: as §1

bermudagrass = format: in vivo, Cynodon dactylon; details: 0 to 100 scale
Excerpt: as §1

CCCOc1cc(-c2nn3c(c2Cl)CCCC3)c(F)cc1Cl [Compound 23]
Plant response rating, Alfalfa Var. (alfalfa; POSTEMERGENCE, Rate 125 g/ha): 0
Plant response rating, Alfalfa Var. (alfalfa; POSTEMERGENCE, Rate 250 g/ha): 0
Plant response rating, Alfalfa Var. (alfalfa; PREEMERGENCE, Rate 125 g/ha): 0
Plant response rating, Alfalfa Var. (alfalfa; PREEMERGENCE, Rate 250 g/ha): 0
Plant response rating, Peanuts (peanut; POSTEMERGENCE, Rate 125 g/ha): 0
Plant response rating, Peanuts (peanut; POSTEMERGENCE, Rate 250 g/ha): 0
Plant response rating, Peanuts (peanut; PREEMERGENCE, Rate 125 g/ha): 0
Plant response rating, Peanuts (peanut; PREEMERGENCE, Rate 250 g/ha): 0
Plant response rating, Purple Nutsedge (purple nutsedge; POSTEMERGENCE): 0
Plant response rating, Purple Nutsedge (purple nutsedge; PREEMERGENCE): 0
Plant response rating, Brdlf Sgnlgrass (broadleaf signalgrass; POSTEMERGENCE, Rate 125 g/ha): 0
Plant response rating, Brdlf Sgnlgrass (broadleaf signalgrass; POSTEMERGENCE, Rate 250 g/ha): 0
Plant response rating, Brdlf Sgnlgrass (broadleaf signalgrass; PREEMERGENCE, Rate 125 g/ha): 0
Plant response rating, Brdlf Sgnlgrass (broadleaf signalgrass; PREEMERGENCE, Rate 250 g/ha): 0
Plant response rating, Cmn Purslane (common purslane; POSTEMERGENCE, Rate 125 g/ha): 70
Plant response rating, Cmn Purslane (common purslane; POSTEMERGENCE, Rate 250 g/ha): 50
Plant response rating, Cmn Purslane (common purslane; PREEMERGENCE, Rate 125 g/ha): 0
Plant response rating, Cmn Purslane (common purslane; PREEMERGENCE, Rate 250 g/ha): 100
Plant response rating, Goosegrass (goosegrass; POSTEMERGENCE, Rate 125 g/ha): 0
Plant response rating, Goosegrass (goosegrass; POSTEMERGENCE, Rate 250 g/ha): 0
Plant response rating, Goosegrass (goosegrass; PREEMERGENCE, Rate 125 g/ha): 90
Plant response rating, Goosegrass (goosegrass; PREEMERGENCE, Rate 250 g/ha): 40
Plant response rating, Cmn Ragweed (common ragweed; POSTEMERGENCE, Rate 125 g/ha): 60
Plant response rating, Cmn Ragweed (common ragweed; POSTEMERGENCE, Rate 250 g/ha): 20
Plant response rating, Cmn Ragweed (common ragweed; PREEMERGENCE, Rate 125 g/ha): 0
Plant response rating, Cmn Ragweed (common ragweed; PREEMERGENCE, Rate 250 g/ha): 0
Plant response rating, Yellow Nutsedge (yellow nutsedge; POSTEMERGENCE): 0
Plant response rating, Yellow Nutsedge (yellow nutsedge; PREEMERGENCE): 0
Plant response rating, Smooth Crabgras (smooth crabgrass; POSTEMERGENCE, Rate 125 g/ha): 0
Plant response rating, Smooth Crabgras (smooth crabgrass; POSTEMERGENCE, Rate 250 g/ha): 0
Plant response rating, Smooth Crabgras (smooth crabgrass; PREEMERGENCE, Rate 125 g/ha): 0
Plant response rating, Smooth Crabgras (smooth crabgrass; PREEMERGENCE, Rate 250 g/ha): 20
Plant response rating, Large Crabgrass (large crabgrass; POSTEMERGENCE, Rate 125 g/ha): 0
Plant response rating, Large Crabgrass (large crabgrass; POSTEMERGENCE, Rate 250 g/ha): 0
Plant response rating, Large Crabgrass (large crabgrass; PREEMERGENCE, Rate 125 g/ha): 0
Plant response rating, Large Crabgrass (large crabgrass; PREEMERGENCE, Rate 250 g/ha): 70
Plant response rating, Pit Morninglory (pitted morningglory; POSTEMERGENCE, Rate 125 g/ha): 0
Plant response rating, Pit Morninglory (pitted morningglory; POSTEMERGENCE, Rate 250 g/ha): 0
Plant response rating, Pit Morninglory (pitted morningglory; PREEMERGENCE, Rate 125 g/ha): 0
Plant response rating, Pit Morninglory (pitted morningglory; PREEMERGENCE, Rate 250 g/ha): 0
Plant response rating, Dallisgrass (dallisgrass; POSTEMERGENCE, Rate 125 g/ha): 0
Plant response rating, Dallisgrass (dallisgrass; POSTEMERGENCE, Rate 250 g/ha): 0
Plant response rating, Dallisgrass (dallisgrass; PREEMERGENCE, Rate 125 g/ha): 0
Plant response rating, Dallisgrass (dallisgrass; PREEMERGENCE, Rate 250 g/ha): 20
Plant response rating, Ann Bluegrass (annual bluegrass; POSTEMERGENCE, Rate 125 g/ha): 0
Plant response rating, Ann Bluegrass (annual bluegrass; POSTEMERGENCE, Rate 250 g/ha): 0
Plant response rating, Ann Bluegrass (annual bluegrass; PREEMERGENCE, Rate 125 g/ha): 0
Plant response rating, Ann Bluegrass (annual bluegrass; PREEMERGENCE, Rate 250 g/ha): 0
Plant response rating, Itchgrass (itchgrass; POSTEMERGENCE, Rate 125 g/ha): 0
Plant response rating, Itchgrass (itchgrass; POSTEMERGENCE, Rate 250 g/ha): 0
Plant response rating, Itchgrass (itchgrass; PREEMERGENCE, Rate 125 g/ha): 0
Plant response rating, Itchgrass (itchgrass; PREEMERGENCE, Rate 250 g/ha): 0
Plant response rating, Johnsongrass (johnsongrass; POSTEMERGENCE, Rate 125 g/ha): 0
Plant response rating, Johnsongrass (johnsongrass; POSTEMERGENCE, Rate 250 g/ha): 0
Plant response rating, Johnsongrass (johnsongrass; PREEMERGENCE, Rate 125 g/ha): 0
Plant response rating, Johnsongrass (johnsongrass; PREEMERGENCE, Rate 250 g/ha): 0
Plant response rating, Guineagrass (guineagrass; POSTEMERGENCE, Rate 125 g/ha): 0
Plant response rating, Guineagrass (guineagrass; POSTEMERGENCE, Rate 250 g/ha): 0
Plant response rating, Guineagrass (guineagrass; PREEMERGENCE, Rate 125 g/ha): 0
Plant response rating, Guineagrass (guineagrass; PREEMERGENCE, Rate 250 g/ha): 0
Plant response rating, Bermudagrass (bermudagrass; POSTEMERGENCE, Rate 125 g/ha): 0
Plant response rating, Bermudagrass (bermudagrass; POSTEMERGENCE, Rate 250 g/ha): 0
Plant response rating, Bermudagrass (bermudagrass; PREEMERGENCE, Rate 125 g/ha): 0
Plant response rating, Bermudagrass (bermudagrass; PREEMERGENCE, Rate 250 g/ha): 50

— patent US6358885B1, “Substituted phenylheterocyclic herbicides” (Mississippi State University, priority 1992, dated 2002)
